In ChEMBL document CHEMBL1143937, “1-deoxyrubralactone, a novel specific inhibitor of families X and Y of eukaryotic DNA polymerases from a fungal strain derived from sea algae” (Bioorg Med Chem, 2008):
Activity calls are given as the source filed them. The rule behind the calls is not given here.

Columns and labels:
Escherichia coli = test: Inhibition of Escherichia coli DNA polymerase 1 at 100 uM
Escherichia phage T7 = test: Inhibition of T7 RNA polymerase […] at 100 uM
[1] = molecular target: Telomerase reverse transcriptase (Homo sapiens) (UniProt O14746); test: Inhibition of human telomerase at 100 uM
Homo sapiens [2] = species on record: Homo sapiens; test: Inhibition of human DNA polymerase epsilon at 100 uM
[3] = molecular target: T1, DNA polymerase delta catalytic subunit (Homo sapiens) (UniProt P28340); test: Inhibition of human DNA polymerase delta at 100 uM
T1 sequence (whole entry): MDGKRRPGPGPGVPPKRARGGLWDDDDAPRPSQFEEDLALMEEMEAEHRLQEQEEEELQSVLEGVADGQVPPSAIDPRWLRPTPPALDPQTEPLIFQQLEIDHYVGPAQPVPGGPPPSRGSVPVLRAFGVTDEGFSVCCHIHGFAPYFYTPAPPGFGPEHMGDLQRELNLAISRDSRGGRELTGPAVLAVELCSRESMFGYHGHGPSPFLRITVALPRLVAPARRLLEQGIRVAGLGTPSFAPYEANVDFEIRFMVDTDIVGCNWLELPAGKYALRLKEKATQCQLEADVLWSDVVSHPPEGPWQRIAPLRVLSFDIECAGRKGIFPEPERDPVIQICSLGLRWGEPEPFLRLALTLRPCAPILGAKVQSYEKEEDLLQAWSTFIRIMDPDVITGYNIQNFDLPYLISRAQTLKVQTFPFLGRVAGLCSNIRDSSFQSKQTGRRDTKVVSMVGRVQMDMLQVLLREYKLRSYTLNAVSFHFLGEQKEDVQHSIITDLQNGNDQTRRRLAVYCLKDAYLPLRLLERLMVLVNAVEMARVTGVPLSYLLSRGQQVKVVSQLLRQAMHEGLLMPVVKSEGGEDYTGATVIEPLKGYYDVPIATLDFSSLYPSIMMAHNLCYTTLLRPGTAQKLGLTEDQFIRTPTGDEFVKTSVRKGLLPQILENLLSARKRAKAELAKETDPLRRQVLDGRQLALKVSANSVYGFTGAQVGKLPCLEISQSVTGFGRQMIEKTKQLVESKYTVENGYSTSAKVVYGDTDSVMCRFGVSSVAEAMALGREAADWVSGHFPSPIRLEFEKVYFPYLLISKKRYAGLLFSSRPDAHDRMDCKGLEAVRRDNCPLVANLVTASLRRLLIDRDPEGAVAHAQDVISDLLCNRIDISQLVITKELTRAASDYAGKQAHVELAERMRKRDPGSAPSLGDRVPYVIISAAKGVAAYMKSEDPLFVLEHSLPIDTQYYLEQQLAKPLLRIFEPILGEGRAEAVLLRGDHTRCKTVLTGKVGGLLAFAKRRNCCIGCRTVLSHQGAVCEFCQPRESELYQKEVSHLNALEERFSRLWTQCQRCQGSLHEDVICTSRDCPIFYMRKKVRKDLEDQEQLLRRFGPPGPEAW

[4] = molecular target: Polynucleotide kinase (Enterobacteria phage T4) (UniProt P06855); test: Inhibition of T4 polynucleotide kinase at 100 uM; details: Tequatrovirus T4
Thermus aquaticus = test: Inhibition of Taq DNA polymerase at 100 uM
Brassica oleracea [5] = test: Inhibition of cauliflower DNA polymerase beta at 100 uM
[6] = molecular target: T2, DNA polymerase lambda (Homo sapiens) (UniProt Q9UGP5); test: Inhibition of human DNA polymerase lambda at 100 uM
T2 sequence (whole entry): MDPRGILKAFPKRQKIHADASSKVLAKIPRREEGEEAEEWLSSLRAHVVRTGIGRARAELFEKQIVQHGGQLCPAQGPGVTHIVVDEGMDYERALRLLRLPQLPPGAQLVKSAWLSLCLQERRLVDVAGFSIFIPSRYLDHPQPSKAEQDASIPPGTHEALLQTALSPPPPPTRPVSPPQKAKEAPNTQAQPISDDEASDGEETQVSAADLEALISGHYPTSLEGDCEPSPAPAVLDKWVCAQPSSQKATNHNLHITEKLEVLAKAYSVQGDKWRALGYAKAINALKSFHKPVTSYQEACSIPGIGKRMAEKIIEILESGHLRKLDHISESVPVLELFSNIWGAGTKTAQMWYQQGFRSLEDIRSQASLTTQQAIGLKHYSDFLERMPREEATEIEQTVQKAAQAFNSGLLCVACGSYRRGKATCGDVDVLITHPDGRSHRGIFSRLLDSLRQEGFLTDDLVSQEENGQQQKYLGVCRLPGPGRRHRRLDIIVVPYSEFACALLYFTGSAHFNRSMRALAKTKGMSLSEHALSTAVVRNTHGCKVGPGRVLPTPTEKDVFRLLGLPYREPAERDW

[7] = molecular target: Human immunodeficiency virus type 1 reverse transcriptase (Human immunodeficiency virus 1) (UniProt Q72547); test: Inhibition of human immunodeficiency virus 1 reverse transcriptase at 100 uM
Homo sapiens [8] = species on record: Homo sapiens; test: Inhibition of human DNA polymerase gamma at 100 uM
DNA polymerase beta = DNA polymerase beta (Rattus norvegicus, UniProt P06766); test: Inhibition of rat DNA polymerase beta
[9] = molecular target: T3, DNA polymerase eta (Homo sapiens) (UniProt Q9Y253); test: Inhibition of human DNA polymerase eta at 100 uM
T3 sequence (whole entry): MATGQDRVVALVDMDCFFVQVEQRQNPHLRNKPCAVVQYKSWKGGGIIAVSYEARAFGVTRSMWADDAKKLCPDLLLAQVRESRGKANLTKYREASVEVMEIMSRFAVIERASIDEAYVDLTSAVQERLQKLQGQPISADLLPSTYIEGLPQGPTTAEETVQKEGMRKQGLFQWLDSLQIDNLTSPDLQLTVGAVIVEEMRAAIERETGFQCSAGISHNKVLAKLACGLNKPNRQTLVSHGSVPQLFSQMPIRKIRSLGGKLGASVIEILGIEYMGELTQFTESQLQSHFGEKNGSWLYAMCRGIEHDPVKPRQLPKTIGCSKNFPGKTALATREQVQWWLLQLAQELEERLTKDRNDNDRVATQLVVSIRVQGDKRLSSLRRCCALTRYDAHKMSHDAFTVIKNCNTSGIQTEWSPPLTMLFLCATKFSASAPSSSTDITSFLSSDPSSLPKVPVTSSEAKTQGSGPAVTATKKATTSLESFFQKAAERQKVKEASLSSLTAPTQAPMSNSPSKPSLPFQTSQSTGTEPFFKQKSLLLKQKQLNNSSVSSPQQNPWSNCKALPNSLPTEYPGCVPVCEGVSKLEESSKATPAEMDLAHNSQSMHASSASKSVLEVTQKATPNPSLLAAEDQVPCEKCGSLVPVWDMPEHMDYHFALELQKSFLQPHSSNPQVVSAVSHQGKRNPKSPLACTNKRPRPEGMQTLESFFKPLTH

Brassica oleracea [10] = test: Inhibition of cauliflower DNA polymerase alpha at 100 uM
Tequatrovirus T4 = test: Inhibition of T4 DNA polymerase at 100 uM
Bos taurus [11] = species on record: Bos taurus; test: Inhibition of calf primase DNA polymerase alpha at 100 uM
[12] = molecular target: Inosine-5'-monophosphate dehydrogenase 2 (Mus musculus) (UniProt P24547); test: Inhibition of mouse IMP dehydrogenase 2 at 100 uM
Bos taurus [13] = species on record: Bos taurus; test: Inhibition of calf DNA polymerase alpha at 100 uM
[14] = molecular target: Deoxyribonuclease-1 (Bos taurus) (UniProt P00639); test: Inhibition of bovine deoxyribonuclease 1 at 100 uM
[15] = molecular target: T4, DNA polymerase iota (Homo sapiens) (UniProt Q9UNA4); test: Inhibition of human DNA polymerase iota at 100 uM
T4 sequence (whole entry): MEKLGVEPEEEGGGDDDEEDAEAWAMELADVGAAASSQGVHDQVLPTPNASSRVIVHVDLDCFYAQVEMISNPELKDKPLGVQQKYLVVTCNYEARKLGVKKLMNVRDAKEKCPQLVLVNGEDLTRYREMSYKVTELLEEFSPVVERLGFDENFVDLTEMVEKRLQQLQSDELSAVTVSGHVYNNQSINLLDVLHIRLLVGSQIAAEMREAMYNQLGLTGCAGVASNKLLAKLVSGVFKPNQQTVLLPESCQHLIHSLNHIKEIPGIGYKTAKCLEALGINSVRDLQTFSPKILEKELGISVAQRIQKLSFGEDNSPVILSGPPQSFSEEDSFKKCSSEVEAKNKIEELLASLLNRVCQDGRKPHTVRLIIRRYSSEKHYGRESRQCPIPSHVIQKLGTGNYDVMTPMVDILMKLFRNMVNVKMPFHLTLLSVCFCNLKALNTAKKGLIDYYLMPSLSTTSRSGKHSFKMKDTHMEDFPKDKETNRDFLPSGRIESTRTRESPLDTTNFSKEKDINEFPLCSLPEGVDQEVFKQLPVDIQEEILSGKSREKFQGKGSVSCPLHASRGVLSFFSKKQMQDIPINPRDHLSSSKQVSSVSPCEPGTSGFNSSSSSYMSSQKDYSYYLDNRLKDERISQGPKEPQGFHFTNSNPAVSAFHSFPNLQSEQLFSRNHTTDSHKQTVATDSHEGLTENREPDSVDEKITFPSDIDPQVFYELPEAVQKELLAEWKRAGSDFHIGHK

Homo sapiens [16] = species on record: Homo sapiens; test: Inhibition of human DNA topoisomerase 2 at 100 uM
[17] = molecular target: T5, DNA topoisomerase 1 (Homo sapiens) (UniProt P11387); test: Inhibition of human DNA topoisomerase 1 at 100 uM
T5 sequence (whole entry): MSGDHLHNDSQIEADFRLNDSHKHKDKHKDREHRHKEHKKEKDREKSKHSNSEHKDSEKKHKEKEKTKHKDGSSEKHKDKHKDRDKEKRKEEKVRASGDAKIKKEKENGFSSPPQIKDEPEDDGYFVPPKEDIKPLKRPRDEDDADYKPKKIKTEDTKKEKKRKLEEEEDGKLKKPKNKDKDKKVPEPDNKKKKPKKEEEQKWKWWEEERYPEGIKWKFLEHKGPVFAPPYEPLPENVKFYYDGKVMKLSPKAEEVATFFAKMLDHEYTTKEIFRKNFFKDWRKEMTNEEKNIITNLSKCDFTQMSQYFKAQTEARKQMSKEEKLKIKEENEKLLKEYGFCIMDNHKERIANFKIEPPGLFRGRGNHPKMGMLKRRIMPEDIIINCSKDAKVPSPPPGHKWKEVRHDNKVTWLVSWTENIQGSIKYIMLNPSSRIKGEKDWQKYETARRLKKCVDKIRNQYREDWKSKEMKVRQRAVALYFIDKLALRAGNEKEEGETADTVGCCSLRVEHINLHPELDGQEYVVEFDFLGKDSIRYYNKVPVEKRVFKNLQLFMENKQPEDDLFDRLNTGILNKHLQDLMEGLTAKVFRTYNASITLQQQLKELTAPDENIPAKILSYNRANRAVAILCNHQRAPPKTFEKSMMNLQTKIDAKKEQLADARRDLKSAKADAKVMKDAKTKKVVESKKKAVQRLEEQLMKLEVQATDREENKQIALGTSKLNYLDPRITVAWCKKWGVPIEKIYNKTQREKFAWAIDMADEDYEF

DNA polymerase kappa = molecular target: T6, DNA polymerase kappa (Homo sapiens, UniProt Q9UBT6); test: Inhibition of human DNA polymerase kappa
T6 sequence (Q9UBT6 whole entry): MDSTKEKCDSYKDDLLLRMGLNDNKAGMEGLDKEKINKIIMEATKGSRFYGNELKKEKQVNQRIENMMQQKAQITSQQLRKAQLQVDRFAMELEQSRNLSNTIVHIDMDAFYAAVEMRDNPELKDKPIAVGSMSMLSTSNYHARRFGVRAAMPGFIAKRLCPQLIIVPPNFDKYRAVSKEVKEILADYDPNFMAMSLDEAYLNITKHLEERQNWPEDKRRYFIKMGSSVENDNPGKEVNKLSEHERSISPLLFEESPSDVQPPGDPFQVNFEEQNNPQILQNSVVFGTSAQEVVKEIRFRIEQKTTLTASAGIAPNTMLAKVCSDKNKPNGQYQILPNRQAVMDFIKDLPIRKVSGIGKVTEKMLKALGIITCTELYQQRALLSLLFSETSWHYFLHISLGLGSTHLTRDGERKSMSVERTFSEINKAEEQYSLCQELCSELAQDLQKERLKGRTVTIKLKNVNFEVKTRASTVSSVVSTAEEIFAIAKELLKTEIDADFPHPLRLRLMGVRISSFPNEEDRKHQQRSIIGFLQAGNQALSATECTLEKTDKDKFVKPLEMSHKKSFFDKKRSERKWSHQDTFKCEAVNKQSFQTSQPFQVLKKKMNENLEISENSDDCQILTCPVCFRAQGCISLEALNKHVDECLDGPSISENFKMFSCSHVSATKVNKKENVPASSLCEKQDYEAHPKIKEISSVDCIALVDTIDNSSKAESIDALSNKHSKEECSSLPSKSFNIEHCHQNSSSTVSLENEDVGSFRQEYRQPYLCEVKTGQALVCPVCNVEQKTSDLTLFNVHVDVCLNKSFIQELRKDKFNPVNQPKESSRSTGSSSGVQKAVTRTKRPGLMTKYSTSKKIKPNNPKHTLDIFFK

Bos taurus [18] = species on record: Bos taurus; test: Inhibition of calf terminal deoxynucleotidyl transferase at 100 uM

Sequence of Polynucleotide kinase (Enterobacteria phage T4) (P06855 whole entry): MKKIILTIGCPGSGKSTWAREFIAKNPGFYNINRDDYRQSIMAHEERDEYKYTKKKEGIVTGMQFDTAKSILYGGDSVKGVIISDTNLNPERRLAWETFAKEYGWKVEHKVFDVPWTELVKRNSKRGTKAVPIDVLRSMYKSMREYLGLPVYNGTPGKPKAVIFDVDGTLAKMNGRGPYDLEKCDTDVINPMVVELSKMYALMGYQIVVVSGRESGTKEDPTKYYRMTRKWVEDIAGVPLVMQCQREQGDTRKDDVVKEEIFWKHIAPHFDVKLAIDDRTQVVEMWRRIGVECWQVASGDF
Sequence of Deoxyribonuclease-1 (Bos taurus) (P00639 whole entry): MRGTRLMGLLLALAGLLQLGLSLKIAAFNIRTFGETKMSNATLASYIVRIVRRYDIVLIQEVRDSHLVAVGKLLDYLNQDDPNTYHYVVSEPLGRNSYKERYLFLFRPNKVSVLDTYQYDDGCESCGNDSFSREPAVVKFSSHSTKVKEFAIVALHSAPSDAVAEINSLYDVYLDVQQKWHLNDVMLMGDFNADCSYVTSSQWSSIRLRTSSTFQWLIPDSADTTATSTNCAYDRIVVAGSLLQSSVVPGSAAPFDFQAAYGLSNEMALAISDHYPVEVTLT
Sequence of Telomerase reverse transcriptase (Homo sapiens) (O14746 whole entry): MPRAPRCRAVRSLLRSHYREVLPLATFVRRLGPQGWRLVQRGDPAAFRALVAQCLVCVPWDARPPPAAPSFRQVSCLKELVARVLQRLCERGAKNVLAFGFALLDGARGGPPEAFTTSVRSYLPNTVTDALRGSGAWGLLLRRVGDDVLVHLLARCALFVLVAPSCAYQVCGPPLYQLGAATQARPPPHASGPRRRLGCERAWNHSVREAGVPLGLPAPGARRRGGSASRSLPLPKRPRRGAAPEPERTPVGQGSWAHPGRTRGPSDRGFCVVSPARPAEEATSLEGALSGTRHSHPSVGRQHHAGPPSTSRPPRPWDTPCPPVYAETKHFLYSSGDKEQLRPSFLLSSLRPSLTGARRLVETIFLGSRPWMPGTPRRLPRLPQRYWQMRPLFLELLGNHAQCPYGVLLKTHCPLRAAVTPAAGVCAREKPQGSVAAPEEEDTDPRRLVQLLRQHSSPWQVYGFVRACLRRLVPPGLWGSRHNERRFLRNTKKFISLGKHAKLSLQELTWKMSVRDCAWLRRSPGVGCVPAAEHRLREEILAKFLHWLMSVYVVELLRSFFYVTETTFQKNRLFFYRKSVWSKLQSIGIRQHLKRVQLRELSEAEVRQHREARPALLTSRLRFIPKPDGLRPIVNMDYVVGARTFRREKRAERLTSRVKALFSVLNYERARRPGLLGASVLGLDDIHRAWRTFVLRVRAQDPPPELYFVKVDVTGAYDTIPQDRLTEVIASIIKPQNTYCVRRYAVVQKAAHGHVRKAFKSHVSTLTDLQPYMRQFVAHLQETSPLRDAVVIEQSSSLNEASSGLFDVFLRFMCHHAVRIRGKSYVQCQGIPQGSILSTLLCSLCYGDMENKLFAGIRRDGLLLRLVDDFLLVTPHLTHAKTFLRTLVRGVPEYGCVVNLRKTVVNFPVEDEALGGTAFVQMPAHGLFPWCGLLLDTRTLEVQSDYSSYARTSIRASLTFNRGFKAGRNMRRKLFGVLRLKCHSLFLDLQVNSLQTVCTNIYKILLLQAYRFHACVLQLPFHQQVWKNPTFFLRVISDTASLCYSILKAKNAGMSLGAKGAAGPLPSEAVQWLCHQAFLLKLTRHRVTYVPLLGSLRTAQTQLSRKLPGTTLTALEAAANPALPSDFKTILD
Sequence of Inosine-5'-monophosphate dehydrogenase 2 (Mus musculus) (P24547 whole entry, looked up): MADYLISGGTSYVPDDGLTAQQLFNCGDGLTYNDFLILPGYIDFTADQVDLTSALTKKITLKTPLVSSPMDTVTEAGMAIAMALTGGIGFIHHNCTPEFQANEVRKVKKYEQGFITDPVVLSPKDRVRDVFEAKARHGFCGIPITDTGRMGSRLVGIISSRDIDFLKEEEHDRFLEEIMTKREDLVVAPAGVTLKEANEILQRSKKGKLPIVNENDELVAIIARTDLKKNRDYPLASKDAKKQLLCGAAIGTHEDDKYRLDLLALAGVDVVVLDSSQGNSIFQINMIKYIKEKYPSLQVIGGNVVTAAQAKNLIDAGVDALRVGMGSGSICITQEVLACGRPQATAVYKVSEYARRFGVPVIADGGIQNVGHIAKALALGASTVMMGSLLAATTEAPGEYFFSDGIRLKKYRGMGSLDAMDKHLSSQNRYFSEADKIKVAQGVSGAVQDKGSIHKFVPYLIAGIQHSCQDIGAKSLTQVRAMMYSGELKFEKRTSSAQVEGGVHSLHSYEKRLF

Compound	Activity (Escherichia coli)	Activity (Escherichia phage T7)	Activity [1]	Activity (Homo sapiens [2])	Activity [3]	Activity [4]	Activity (Thermus aquaticus)	Activity (Brassica oleracea [5])	Activity [6]	Activity [7]	Activity (Homo sapiens [8])	IC50 (DNA polymerase beta) [µM]	Activity [9]	Activity (Brassica oleracea [10])	Activity (Tequatrovirus T4)	Activity (Bos taurus [11])	Activity [12]	Activity (Bos taurus [13])	Activity [14]	Activity [15]	also measured
COc1cc(O)c2c(c1)C1(OC2=O)C(C)=CC(=O)C1O (stereo not drawn) [TALAROFLAVONE]	inactive	inactive	inactive	inactive	inactive	inactive	inactive	inactive	Active	inactive	inactive	16.3	Active	inactive	inactive	inactive	inactive	inactive	inactive	Active	Activity (Homo sapiens [16]): inactive; Activity [17]: inactive; IC50 (DNA polymerase kappa): 86.5 µM; Activity (Bos taurus [18]): Active
COc1cc(O)c2c(=O)oc3c(c2c1)C(C)CC3=O (stereo not drawn)	inactive	inactive	inactive	inactive	inactive	inactive	inactive	inactive	Active	inactive	inactive	11.9	Active	inactive	inactive	inactive	inactive	inactive	inactive	Active	Activity (Homo sapiens [16]): inactive; Activity [17]: inactive; IC50 (DNA polymerase kappa): 59.8 µM; Activity (Bos taurus [18]): Active
